Results on 16 compounds are retold here after patent US8501755B2, “Tetrahydropyridothienopyrimidine compounds and methods of use thereof” (Bayer Intellectual Property GmbH, priority 2006, dated 2013).

Common to all, as to type: cell-based
One test concerns N87. As to the kind of experiment: In vitro tumor cell proliferation assay (Cell Titer-Glo) in N87 cells. The note with it: N87 human gastric carcinoma overexpressing HER2 and HER1; 72 hours exposure; read-out: IC50, activities in N87 cell lines. In short, it runs like this: (§1)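 Viability after 72 h drug exposure at 37 °C was read as CellTiter-Glo ATP luminescence, giving IC50. Cells (2.5×10^3/well, RPMI + 10% FBS) were compound-treated one day post-seeding, 0.1% DMSO final: A431 overexpresses HER1, N87 overexpresses HER2 and HER1.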

The test system of the next test is A431 cells. Briefly: In vitro tumor cell proliferation assay (Cell Titer-Glo) in A431 cells. Particulars: Homo sapiens, A-431, 72 h, A431 human epidermoid carcinoma overexpressing HER1; 72 hours exposure; read-out: IC50, activities in A431 cell lines. The method, boiled down:
as §1

The next test has as its system H1975 cells. As to the kind of experiment: In vitro tumor cell proliferation assay (Cell Titer-Glo) in H1975 cells. The note with it: NCI-H1975; H1975 human NSCLC expressing mutant HER1 (L858R,T790M); 72 hours exposure; read-out: IC50, activities in H 1975 cell lines. The method, boiled down: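 After 72 h compound exposure at 37° C (top 10 uM down to 64 pM, 0.1% DMSO), viability of EGFR L858R/T790M-mutant H1975 cells was read as ATP luminescence.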

Regarding `CC1CCC(C)N1C/C=C/C(=O)N1CCc2c(sc3ncnc(Nc4ccc(OCc5ccccn5)c(Cl)c4)c23)C1` (stereo not drawn) [Example 48, N-[3-chloro-4-(pyridin-2-ylmethoxy)phenyl]-7-[(2E)-4-(2,5-dimethylpyrrolidin-1-yl)but-2-enoyl]-5,6,7,8-tetrahydropyrido [4′,3′:4,5]thieno[2,3-d]pyrimidin-4-amine], the IC50 in the test on N87 is less than 200 nM; in the test with A431 cells, 1000 to 10000 nM; in the test with H1975 cells, 1000 to 10000 nM.
As to `CCN(C)C/C=C/C(=O)N1CCc2c(sc3ncnc(Nc4ccc(OCc5ccccn5)c(Cl)c4)c23)C1` [Example 49, N-(3-chloro-4-(pyridin-2-ylmethoxy)phenyl]-7-{(2E)-4-[ethyl(methyl)amino]but-2-enoyl}-5,6,7,8-tetrahydropyrido [4′,3′:4,5]thieno[2,3-d]pyrimidin-4-amine], the figures for the 50% inhibitory concentration (IC50) in the test with N87, in the test with A431 cells and in the test on H1975 cells were less than 200 nM, 200 to 1000 nM and 200 to 1000 nM, respectively.
For `O=C(/C=C/Cn1ccnc1)N1CCc2c(sc3ncnc(Nc4ccc(OCc5ccccn5)c(Cl)c4)c23)C1` [Example 51, N-[3-chloro-4-(pyridin-2-ylmethoxy)phenyl]-7-[(2E)-4-(1H-imidazol-1-yl)but-2-enoyl]-5,6,7,8-tetrahydropyrido [4′,3′:4,5]thieno[2,3-d]pyrimidin-4-amine], the results for the IC50 in the test with N87, with A431 cells and with H1975 cells were less than 200 nM, 200 to 1000 nM and 1000 to 10000 nM, respectively.
In the same order, the values of `CC(O)CN(C/C=C/C(=O)N1CCc2c(sc3ncnc(Nc4ccc(OCc5ccccn5)c(Cl)c4)c23)C1)CC(C)O` (stereo not drawn) [Example 52, 1,1′-({(2E)-4-[4-{[3-chloro-4-(pyridin-2-ylmethoxy)phenyl]amino}-5,8-dihydropyrido [4′,3′:4,5]thieno[2,3-d]pyrimidin-7(6H)-yl]-4-oxobut-2-en-1-yl}imino)dipropan-2-ol] are 200 to 5000 nM, 1000 to 10000 nM and 1000 to 10000 nM.
In the same order, the values of `CC1CN(C/C=C/C(=O)N2CCc3c(sc4ncnc(Nc5ccc(OCc6ccccn6)c(Cl)c5)c34)C2)CC(C)O1` (stereo not drawn) [Example 53, N-[3-chloro-4-(pyridin-2-ylmethoxy)phenyl]-7-((2E)-4-(2,6-dimethylmorpholin-4-yl)but-2-enoyl]-5,6,7,8-tetrahydropyrido [4′,3′:4,5]thieno[2,3-d]pyrimidin-4-amine] are less than 200 nM, 1000 to 10000 nM and 1000 to 10000 nM.
In the same order, the values of `CN(C/C=C/C(=O)N1CCc2c(sc3ncnc(Nc4ccc(F)c(Cl)c4)c23)C1)C1CCCCC1` [Example 54, N-(3-chloro-4-fluorophenyl)-7-{(2E)-4-[cyclohexyl(methyl)amino]but-2-enoyl}-5,6,7,8-tetrahydropyrido [4′,3′:4,5]thieno[2,3-d]pyrimidin-4-amine] are less than 200 nM, 200 to 1000 nM and 200 to 1000 nM.
Consider `CC1CCCCN1C/C=C/C(=O)N1CCc2c(sc3ncnc(Nc4ccc(F)c(Cl)c4)c23)C1` (stereo not drawn) [Example 56, N-(3-chloro-4-fluorophenyl)-7-[(2E)-4-(2-methylpiperidin-1-yl)but-2-enoyl]-5,6,7,8-tetrahydropyrido [4′,3′:4,5]thieno[2,3-d]pyrimidin-4-amine], for which the IC50 is less than 200 nM with N87, 200 to 1000 nM with A431 cells and 200 to 1000 nM in the test with H1975 cells.
In the case of `O=C(/C=C/CN1CCC(CCO)CC1)N1CCc2c(sc3ncnc(Nc4ccc(F)c(Cl)c4)c23)C1` [Example 57, 2-{1-[(2E)-4-{4-[(3-chloro-4-fluorophenyl)amino]-5,8-dihydropyrido [4′,3′:4,5]thieno[2,3-d]pyrimidin-7(6H)-yl}-4-oxobut-2-en-1-yl]piperidin-4-yl}ethanol], the IC50 with N87 is less than 200 nM; in the test on A431 cells it was 1000 to 10000 nM; with H1975 cells, 200 to 1000 nM.
Taken in the same sequence, the figures for `O=C(/C=C/CN1CCC(O)CC1)N1CCc2c(sc3ncnc(Nc4ccc(F)c(Cl)c4)c23)C1` [Example 58, 1-[(2E)-4-{4-[(3-chloro-4-fluorophenyl)amino]-5,8-dihydropyrido [4′,3′:4,5]thieno[2,3-d]pyrimidin-7(6H)-yl}-4-oxobut-2-en-1-yl]piperidin-4-ol] were less than 200 nM, 1000 to 10000 nM and 1000 to 10000 nM.
For `CC1CCCN1C/C=C/C(=O)N1CCc2c(sc3ncnc(Nc4ccc(F)c(Cl)c4)c23)C1` (stereo not drawn) [Example 59, N-(3-chloro-4-fluorophenyl)-7-[(2E)-4-(2-methylpyrrolidin-1-yl)but-2-enoyl]-5,6,7,8-tetrahydropyrido [4′,3′:4,5]thieno[2,3-d]pyrimidin-4-amine], the IC50 with N87, in the test with A431 cells and with H1975 cells was less than 200 nM each time.
For `CC1CCCC(C)N1C/C=C/C(=O)N1CCc2c(sc3ncnc(Nc4ccc(F)c(Cl)c4)c23)C1` (stereo not drawn) [Example 60, N-(3-chloro-4-fluorophenyl)-7-[(2E)-4-(2,6-dimethylpiperidin-1-yl)but-2-enoyl]-5,6,7,8-tetrahydropyrido [4′,3′:4,5]thieno[2,3-d]pyrimidin-4-amine], the IC50 is less than 200 nM with N87, 200 to 1000 nM in the test on A431 cells and 200 to 1000 nM with H1975 cells.
With `CCN(C/C=C/C(=O)N1CCc2c(sc3ncnc(Nc4ccc(F)c(Cl)c4)c23)C1)C1CCCCC1` [Example 61, N-(3-chloro-4-fluorophenyl)-7-{(2E)-4-[cyclohexyl(ethyl)amino]but-2-enoyl}-5,6,7,8-tetrahydropyrido [4′,3′:4,5]thieno[2,3-d]pyrimidin-4-amine], the figures for the IC50 in the test with N87, with A431 cells and in the test on H1975 cells were less than 200 nM, 200 to 1000 nM and 200 to 1000 nM, respectively.
Consider `O=C(/C=C/CN1CCN(CCO)CC1)N1CCc2c(sc3ncnc(Nc4ccc(OCc5ccccn5)c(Cl)c4)c23)C1` [Example 62, 2-(4-{(2E)-4-[4-{[3-chloro-4-(pyridin-2-ylmethoxy)phenyl]amino}-5,8-dihydropyrido [4′,3′:4,5]thieno[2,3-d]pyrimidin-7(6H)-yl]-4-oxobut-2-en-1-yl}piperazin-1-yl)ethanol], for which the IC50 in the test with N87 was less than 200 nM; in the test on A431 cells it was 200 to 1000 nM; in the test with H1975 cells it was 200 to 1000 nM.
On to `CC(C)N(C)C/C=C/C(=O)N1CCc2c(sc3ncnc(Nc4ccc(OCc5ccccn5)c(Cl)c4)c23)C1` [Example 63, N-[3-chloro-4-(pyridin-2-ylmethoxy)phenyl]-7-{(2E)-4-[isopropyl(methyl)amino]but-2-enoyl}-5,6,7,8-tetrahydropyrido [4′,3′:4,5]thieno[2,3-d]pyrimidin-4-amine], for which the IC50 is less than 200 nM in the test on N87, 200 to 1000 nM in the test with A431 cells and 200 to 1000 nM in the test on H1975 cells.
Regarding `CC1CCCCN1C/C=C/C(=O)N1CCc2c(sc3ncnc(Nc4ccc(OCc5ccccn5)c(Cl)c4)c23)C1` (stereo not drawn) [Example 64], the results for the IC50 with N87, in the test on A431 cells and in the test with H1975 cells were less than 200 nM, 200 to 1000 nM and 200 to 1000 nM, respectively.
Consider `CN(C/C=C/C(=O)N1CCc2c(sc3ncnc(Nc4ccc(OCc5ccccn5)c(Cl)c4)c23)C1)C(C)(C)C` [Example 65, 7-{(2E)-4-[tert-butyl(methyl)amino]but-2-enoyl}-N-[3-chloro-4-(pyridin-2-ylmethoxy)phenyl]-5,6,7,8-tetrahydropyrido [4′,3′:4,5]thieno[2,3-d]pyrimidin-4-amine], for which the IC50 with N87 was less than 200 nM; in the test on A431 cells, 200 to 1000 nM; in the test on H1975 cells, less than 200 nM.
